Data: US20120010253A1, “Fungicidal compositions comprising Fluopyram and Metrafenone” (BASF SE, priority 2009, published 2012)

Experiments:
Pyrenophora teres = test: Activity against Pyrenophora teres (net blotch on barley) in the microtiter plate test; type: cell-based; settings: MTP, 405 nm, 7 days after inoculation
Description: The active substances were formulated separately as a stock solution in dimethyl sulfoxide (DMSO) at a concentration of 10 000 ppm. Use Example 2—Activity Against Pyrenophora teres (Net Blotch on Barley) in the Microtiter Plate Test The stock solutions were mixed according to the ratio, pipetted onto a micro titer plate (MTP) and diluted with water to the stated concentrations. A spore suspension of Pyrenophora teres in an aqueous biomalt solution was then added. The plates were placed in a water vapor-saturated chamber at a temperature of 18° C. Using an absorption photometer, the MTPs were measured at 405 nm 7 days after the inoculation. The measured parameters were compared to the growth of the active compound-free control variant (100%) and the fungus-free and active compound-free blank value to determine the relative growth in % of the pathogens in the respective active compounds. These percentages were converted into efficacies. The expected efficacies of active compound mixtures were determined using Colby's formula [R. S. Colby, “Calculating synergistic and antagonistic responses of herbicide combinations”, Weeds 15, 20-22 (1967)] and compared with the observed efficacies.

Botrytis cinerea = test: Activity against the grey mold Botrytis cinerea in the microtiter plate test; type: cell-based; settings: MTP, 405 nm, 7 days after inoculation
Description: The active substances were formulated separately as a stock solution in dimethyl sulfoxide (DMSO) at a concentration of 10 000 ppm. Use Example 1—Activity Against the Grey Mold Botrytis cinerea in the Microtiter Plate Test The stock solutions were mixed according to the ratio, pipetted onto a micro titer plate (MTP) and diluted with water to the stated concentrations. A spore suspension of Botrci cinerea in an aqueous biomalt solution was then added. The plates were placed in a water vapor-saturated chamber at a temperature of 18° C. Using an absorption photometer, the MTPs were measured at 405 nm 7 days after the inoculation. The measured parameters were compared to the growth of the active compound-free control variant (100%) and the fungus-free and active compound-free blank value to determine the relative growth in % of the pathogens in the respective active compounds. These percentages were converted into efficacies. The expected efficacies of active compound mixtures were determined using Colby's formula [R. S. Colby, “Calculating synergistic and antagonistic responses of herbicide combinations”, Weeds 15, 20-22 (1967)] and compared with the observed efficacies.

Structure (SMILES) | Observed efficacy (%) (Pyrenophora teres; 0.063 ppm) | Observed efficacy (%) (Pyrenophora teres; 0.25 ppm) | Observed efficacy (%) (Botrytis cinerea; 0.25 ppm) | Observed efficacy (%) (Pyrenophora teres; 1 ppm) | Observed efficacy (%) (Botrytis cinerea; 16 ppm)
O=C(NCCc1ncc(C(F)(F)F)cc1Cl)c1ccccc1C(F)(F)F [Fluopyram] | 16 | 60 | 18 | – | –
COc1cc(C)c(C(=O)c2c(OC)ccc(Br)c2C)c(OC)c1OC [Metrafenon, Metrafenone] | 3 | – | – | 18 | 10
